Laboratory results reported in PubChem BioAssay (NCI).
“And” between values parts separate entries of the source, which are not always exact repeats. Equal entries are not always repeated.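 These data come from cells grown in 96-well plates and exposed to compound for 48 hours at five concentrations. GI50 marks 50% less growth. TGI: concentration producing complete growth inhibition.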

Columns and labels:
Assay in all cases: growth of human tumour cells (NCI), 48 h
DU-145 prostate = tested on: DU-145 prostate
HS 578T breast = tested on: HS 578T breast
MCF7 breast = tested on: MCF7 breast
MDA-MB-435 = tested on: MDA-MB-435
SR leukemia = tested on: SR leukemia
786-0 renal = tested on: 786-0 renal
BT-549 breast = tested on: BT-549 breast
MDA-N = tested on: MDA-N
DLD-1 colon = tested on: DLD-1 colon
DMS 114 small cell lung = tested on: DMS 114 small cell lung
KM20L2 colon = tested on: KM20L2 colon
M19-MEL melanoma = tested on: M19-MEL melanoma
SNB-78 CNS = tested on: SNB-78 CNS
DMS 273 small cell lung = tested on: DMS 273 small cell lung
RXF-631 renal = tested on: RXF-631 renal
XF 498 CNS = tested on: XF 498 CNS
LXFL 529 NSCLC = tested on: LXFL 529 NSCLC

| SMILES | TGI (DU-145 prostate) | TGI (HS 578T breast) | TGI (MCF7 breast) | TGI (MDA-MB-435) | TGI (SR leukemia) | TGI (786-0 renal) | TGI (BT-549 breast) | TGI (MDA-N) | TGI (DLD-1 colon) | TGI (DMS 114 small cell lung) | TGI (KM20L2 colon) | TGI (M19-MEL melanoma) | TGI (SNB-78 CNS) | TGI (DMS 273 small cell lung) | TGI (RXF-631 renal) | TGI (XF 498 CNS) | GI50 (BT-549 breast) | GI50 (MDA-MB-435) | GI50 (SR leukemia) | TGI (LXFL 529 NSCLC) |
| --- | --- | --- | --- | --- | --- | --- | --- | --- | --- | --- | --- | --- | --- | --- | --- | --- | --- | --- | --- | --- |
| NC(CCOCCP(=O)(O)CCOCCC(N)C(=O)O)C(=O)O (centres undefined) | > 100 µM | > 100 µM | > 100 µM | > 100 µM | > 100 µM | – | – | – | – | – | – | – | – | – | – | – | – | – | – | – |
| NC(Cc1ccccc1)(C(=O)O)C(=O)O | > 100 µM | > 100 µM | > 100 µM | > 100 µM | – | > 100 µM | > 100 µM | > 100 µM | – | – | – | – | – | – | – | – | – | – | – | – |
| CC(C)C1OC(/C=C/c2ccccc2)OCC1(C)C (centres undefined) | > 100 µM | 88.7 µM | > 100 µM | > 100 µM | > 100 µM | > 100 µM | > 100 µM | > 100 µM | – | – | – | – | – | – | – | – | – | – | – | – |
| O=C1OCc2cccc3c2-c2c1cccc2C(=O)OC3 | – | – | – | – | > 100 µM | – | – | – | > 100 µM | > 100 µM | > 100 µM | > 100 µM | > 100 µM | – | – | – | – | – | – | – |
| N=C(N)SCc1cccc2c(=O)cc(-c3ccccc3)oc12 | 16.2 µM | 45.4 µM | 16.3 µM | 21.5 µM | > 100 µM | 23.3 µM | 28.2 µM | 21.3 µM | 48.5 µM | 31.1 µM | 45.6 µM | 49.9 µM | 31.7 µM | 27.7 µM | 28.5 µM | 28.4 µM | – | – | – | – |
| C/C(=C\c1ccc(Cl)c(Cl)c1)[N+](=O)[O-] | 2.92 µM and 3.12 µM | 9.44 µM | 17.3 µM | 3.71 µM and 4.55 µM | 11.4 µM and 6.68 µM | 3.18 µM | 20.1 µM | – | – | – | – | – | – | – | – | – | 7.55 µM | 1.84 µM | 2.38 µM | – |
| COc1cccc(CC2Cc3ccccc3CC(=O)N2)c1 (centres undefined) | > 100 µM | 68.2 µM | 92 µM | > 100 µM | > 100 µM | – | 92.1 µM | > 100 µM | – | – | – | – | – | – | – | – | – | – | – | – |
| O=C1/C(=C/c2ccc(Cl)cc2)N=C(c2ccccc2)N1c1ccc(S(=O)(=O)Nc2nccs2)cc1 | > 100 µM | > 100 µM | 82.9 µM | 76.4 µM | > 100 µM | > 100 µM | – | > 100 µM | – | – | – | – | – | – | – | – | – | – | – | – |
| COc1ccc(Cc2nccc3cc(OC)c(OC)cc23)cc1OC | > 100 µM | > 100 µM | > 100 µM | > 100 µM | > 100 µM | > 100 µM | > 100 µM | > 100 µM | – | – | – | – | – | – | – | – | – | – | – | – |
| O=C(O)c1oc(C(=O)O)c(C(=O)O)c1C(=O)O | > 100 µM | > 100 µM | – | – | > 100 µM | > 100 µM | > 100 µM | > 100 µM | – | – | – | – | – | – | – | – | – | – | – | – |
| CCCCC(=O)Oc1ccc2c(C)cc(=O)oc2c1 | > 100 µM | > 100 µM | > 100 µM | > 100 µM | > 100 µM | > 100 µM | > 100 µM | > 100 µM | – | – | – | – | – | – | – | – | – | – | – | – |
| c1ccc(-c2nnc(-c3nsc4ccccc34)o2)cc1 | – | – | – | – | – | – | – | – | – | > 100 µM | > 100 µM | > 100 µM | > 100 µM | > 100 µM | – | – | – | – | – | > 100 µM |
| O=C(O)C12CCCC(CCC1)C2 | – | – | – | – | – | – | – | – | > 100 µM | > 100 µM | – | – | > 100 µM | > 100 µM | > 100 µM | > 100 µM | – | – | – | > 100 µM |
| CCOC(=O)C1=C(C)N(NC(N)=O)C2(O)CCCC(=O)C12C (centres undefined) | – | – | – | – | – | – | – | – | > 100 µM | > 100 µM | > 100 µM | – | > 100 µM | > 100 µM | > 100 µM | > 100 µM | – | – | – | > 100 µM |
| CCCCS(=O)(=O)Nc1ccc(Nc2c3ccccc3nc3ccccc23)c(OC)c1 | – | – | 17.4 µM | – | – | – | – | – | 24.4 µM | – | 11.9 µM | 19.6 µM | 18.9 µM | 3.37 µM | – | 10.5 µM | – | – | – | – |
| c1ccc(C[n+]2cccc(-c3cc4ccccc4[nH]3)c2)cc1 | > 100 µM | > 100 µM | 98.8 µM | 43.7 µM | > 100 µM | > 100 µM | 36.6 µM | 37.6 µM | – | – | – | – | – | – | – | – | – | – | – | – |
